From ChEMBL document CHEMBL1150412, “1,5-Diphenylpyrrole derivatives as antimycobacterial agents. Probing the influence on antimycobacterial activity of lipophilic substituents at the phenyl rings” (J Med Chem, 2008)
≈ marks a conversion by molar mass, not a printed value.

Columns and labels:
Mycobacterium avium = experiment: Antimycobacterial activity against Mycobacterium avium CIP 103317; type: functional
Vero = experiment: Cytotoxicity against african green monkey Vero cells after 5 days; type: cell-based; settings: chlorocebus sabaeus, 120 h
[1] = test system: Mycolicibacterium smegmatis; experiment: Antimycobacterial activity against Mycobacterium smegmatis CIP 103599; type: functional
[2] = test system: Mycobacterium tuberculosis; experiment: Antimycobacterial activity against Mycobacterium tuberculosis H37Rv; type: functional
Mycobacterium marinum = experiment: Antimycobacterial activity against Mycobacterium marinum CIP 6423; type: functional
[3] = test system: Mycobacterium tuberculosis; experiment: Antimycobacterial activity against Mycobacterium tuberculosis 103471; type: functional
[4] = Protection index, ratio of MNTD50 for african green monkey Vero cells to MIC for Mycobacterium tuberculosis 103471; type: functional
[5] = test system: Mycobacterium tuberculosis; experiment: Antimycobacterial activity against Mycobacterium tuberculosis clinical isolates by agar dilution method; type: functional
[6] = test system: Mycobacterium tuberculosis; experiment: Antimycobacterial activity against Mycobacterium tuberculosis H37Rv in […] cells assessed as reduction in number of surviving bacteria at 0.25 ug/mL relative to control; type: functional
[7] = test system: Mycobacterium tuberculosis; experiment: Antimycobacterial activity against Mycobacterium tuberculosis H37Rv in […] cells assessed as reduction in number of surviving bacteria at 1 ug/mL relative to control; type: functional
[8] = test system: Mycobacterium tuberculosis; experiment: Antimycobacterial activity against Mycobacterium tuberculosis H37Rv in […] cells assessed as reduction in number of surviving bacteria at 0.5 ug/mL relative to control; type: functional

`Cc1ccc(-c2cc(CN3CCSCC3)c(C)n2-c2ccc(Cl)cc2)cc1` gave an MIC (Mycobacterium avium) of 16 µg/mL (≈ 40.3 µM), an MNTD50 (Vero) of 64 µg/mL and an MIC [1] of over 16 µg/mL. For the same compound, the MIC [2] was 0.5 µg/mL (≈ 1.26 µM), the MIC (Mycobacterium marinum) was over 16 µg/mL and the MIC [3] was 0.5 µg/mL (≈ 1.26 µM). It also gave a Ratio [4] of 128.
With `Cc1c(CN2CCSCC2)cc(-c2ccc(F)cc2)n1-c1ccc(C(C)C)cc1` the MIC (Mycobacterium avium) was over 16 µg/mL, the MNTD50 (Vero) was 8 µg/mL and the MIC [1] was 8 µg/mL (≈ 19.6 µM). The MIC (Mycobacterium marinum) was over 16 µg/mL, the MIC [3] was 16 µg/mL (≈ 39.2 µM) and the Ratio [4] was 0.5.
In the case of `Cc1c(CN2CCN(C)CC2)cc(-c2ccc(Cl)cc2)n1-c1ccc(Cl)cc1`, the MIC (Mycobacterium avium) is reported as 0.5 µg/mL (≈ 1.21 µM), the MNTD50 (Vero) is reported as 4 µg/mL and the MIC [1] is reported as 25 µg/mL (≈ 60.3 µM). The MIC [2] was 2 µg/mL (≈ 4.83 µM), the MIC (Mycobacterium marinum) was 100 µg/mL (≈ 241 µM) and the MIC [3] was 1 µg/mL (≈ 2.41 µM). The Ratio [4] was 4.
Compound `[H]/N=C(/N)N[C@H]1[C@H](O)[C@@H](O)[C@H](O[C@@H]2O[C@@H](C)[C@](O)(C=O)[C@H]2O[C@@H]2O[C@@H](CO)[C@H](O)[C@@H](O)[C@@H]2NC)[C@@H](N/C(N)=N\[H])[C@@H]1O` (stereo in doubt) [STREPTOMYCIN] has an MIC (Mycobacterium avium) of 8 µg/mL (≈ 13.8 µM), an MNTD50 (Vero) of over 64 µg/mL and an MIC [1] of 8 µg/mL (≈ 13.8 µM). It also gave an MIC [2] of 4 µg/mL (≈ 6.88 µM), an MIC (Mycobacterium marinum) of 32 µg/mL (≈ 55 µM) and an MIC [3] of 0.5 µg/mL (≈ 0.86 µM). It also gave a Ratio [4] of over 128.
Compound `Cc1ccc(-n2c(-c3ccc(Cl)cc3)cc(CN3CCSCC3)c2C)cc1` has an MIC (Mycobacterium avium) of over 16 µg/mL, an MNTD50 (Vero) of 16 µg/mL and an MIC [1] of 16 µg/mL (≈ 40.3 µM). It also gave an MIC [2] of 0.5 µg/mL (≈ 1.26 µM), an MIC (Mycobacterium marinum) of 16 µg/mL (≈ 40.3 µM) and an MIC [3] of 0.5 µg/mL (≈ 1.26 µM). It also gave a Ratio [4] of 32.
With `CCCc1ccc(-c2cc(CN3CCSCC3)c(C)n2-c2ccc(Cl)cc2)cc1` the MIC (Mycobacterium avium) was 4 µg/mL (≈ 9.41 µM), the MNTD50 (Vero) was 16 µg/mL and the MIC [1] was over 16 µg/mL. The MIC [2] was 0.125 µg/mL (≈ 0.294 µM), the MIC (Mycobacterium marinum) was 4 µg/mL (≈ 9.41 µM) and the MIC [3] was 0.25 µg/mL (≈ 0.588 µM). The Ratio [4] was 64.
`CCCc1ccc(-c2cc(CN3CCSCC3)c(C)n2-c2ccc(F)cc2)cc1` showed an MIC (Mycobacterium avium) of over 16 µg/mL, an MNTD50 (Vero) of 4 µg/mL and an MIC [1] of over 16 µg/mL. The MIC (Mycobacterium marinum) was over 16 µg/mL, the MIC [3] was 2 µg/mL (≈ 4.89 µM) and the Ratio [4] was 2.
For `CCc1ccc(-c2cc(CN3CCSCC3)c(C)n2-c2ccc(F)cc2)cc1`, the MIC (Mycobacterium avium) was over 16 µg/mL, the MNTD50 (Vero) was 16 µg/mL and the MIC [1] was over 16 µg/mL. The MIC (Mycobacterium marinum) was over 16 µg/mL, the MIC [3] was 1 µg/mL (≈ 2.53 µM) and the Ratio [4] was 16.
`Cc1c(CN2CCSCC2)cc(-c2ccc(C(C)C)cc2)n1-c1ccc(F)cc1` showed an MIC (Mycobacterium avium) of 4 µg/mL (≈ 9.79 µM), an MIC50 [5] of 0.5 µg/mL (≈ 1.22 µM) and an MIC90 [5] of 0.5 µg/mL (≈ 1.22 µM). It also gave an MNTD50 (Vero) of 32 µg/mL, an MIC [1] of over 16 µg/mL and an MIC [2] of 0.25 µg/mL (≈ 0.612 µM). It also gave an MIC (Mycobacterium marinum) of 8 µg/mL (≈ 19.6 µM), an MIC [3] of 0.25 µg/mL (≈ 0.612 µM) and a Ratio [4] of 128.
Compound `CCCc1ccc(-n2c(-c3ccc(Cl)cc3)cc(CN3CCSCC3)c2C)cc1` has an MIC (Mycobacterium avium) of 16 µg/mL (≈ 37.6 µM), an MIC50 [5] of 0.5 µg/mL (≈ 1.18 µM) and an MIC90 [5] of 1 µg/mL (≈ 2.35 µM). It also gave an MNTD50 (Vero) of 32 µg/mL, an Activity [6] of 21.05% and an MIC [1] of over 16 µg/mL. It also gave an MIC [2] of 0.25 µg/mL (≈ 0.588 µM), an MIC (Mycobacterium marinum) of 16 µg/mL (≈ 37.6 µM) and an Activity [7] of 98.79%. The Activity [8] was 85.79%, the MIC [3] was 0.25 µg/mL (≈ 0.588 µM) and the Ratio [4] was 128.
Work on `CO[C@H]1/C=C/O[C@@]2(C)Oc3c(C)c(O)c4c(O)c(c(/C=N/N5CCN(C)CC5)c(O)c4c3C2=O)NC(=O)/C(C)=C\C=C\[C@H](C)[C@H](O)[C@@H](C)[C@@H](O)[C@@H](C)[C@H](OC(C)=O)[C@@H]1C` [RIFAMPIN] yielded an MIC (Mycobacterium avium) of 0.25 µg/mL (≈ 0.304 µM), an MNTD50 (Vero) of 64 µg/mL and an Activity [6] of 95.79%. The MIC [1] was 32 µg/mL (≈ 38.9 µM), the MIC [2] was 0.25 µg/mL (≈ 0.304 µM) and the MIC (Mycobacterium marinum) was 0.5 µg/mL (≈ 0.608 µM). The Activity [7] was 99.79%, the Activity [8] was 98.42% and the MIC [3] was 0.25 µg/mL (≈ 0.304 µM). The Ratio [4] was 256.
`Cc1ccc(-c2cc(CN3CCSCC3)c(C)n2-c2ccc(F)cc2)cc1` gave an MIC (Mycobacterium avium) of 8 µg/mL (≈ 21 µM), an MNTD50 (Vero) of 64 µg/mL and an MIC [1] of 16 µg/mL (≈ 42 µM). The MIC [2] was 0.125 µg/mL (≈ 0.328 µM), the MIC (Mycobacterium marinum) was 8 µg/mL (≈ 21 µM) and the MIC [3] was 0.25 µg/mL (≈ 0.657 µM). For the same compound, the Ratio [4] was 256.
For `CCc1ccc(-n2c(-c3ccc(Cl)cc3)cc(CN3CCSCC3)c2C)cc1`, the MIC (Mycobacterium avium) was 16 µg/mL (≈ 38.9 µM), the MNTD50 (Vero) was 16 µg/mL and the MIC [1] was 8 µg/mL (≈ 19.5 µM). For the same compound, the MIC [2] was 0.5 µg/mL (≈ 1.22 µM), the MIC (Mycobacterium marinum) was 4 µg/mL (≈ 9.73 µM) and the MIC [3] was 0.5 µg/mL (≈ 1.22 µM). It also gave a Ratio [4] of 32.
Work on `CCc1ccc(-n2c(-c3ccc(F)cc3)cc(CN3CCSCC3)c2C)cc1` yielded an MIC (Mycobacterium avium) of over 16 µg/mL, an MNTD50 (Vero) of 2 µg/mL and an MIC [1] of 2 µg/mL (≈ 5.07 µM). The MIC (Mycobacterium marinum) was over 16 µg/mL, the MIC [3] was 2 µg/mL (≈ 5.07 µM) and the Ratio [4] was 1.
`CCCc1ccc(-n2c(-c3ccc(F)cc3)cc(CN3CCSCC3)c2C)cc1` gave an MIC (Mycobacterium avium) of over 16 µg/mL, an MNTD50 (Vero) of 4 µg/mL and an MIC [1] of 4 µg/mL (≈ 9.79 µM). It also gave an MIC (Mycobacterium marinum) of 16 µg/mL (≈ 39.2 µM), an MIC [3] of 1 µg/mL (≈ 2.45 µM) and a Ratio [4] of 4.
For `Cc1c(CN2CCSCC2)cc(-c2ccc(Cl)cc2)n1-c1ccc(C(C)C)cc1`, the MIC (Mycobacterium avium) was 16 µg/mL (≈ 37.6 µM), the MIC [5] was 0.25 µg/mL (≈ 0.588 µM) and the MIC50 [5] was 0.25 µg/mL (≈ 0.588 µM). For the same compound, the MIC90 [5] was 0.5 µg/mL (≈ 1.18 µM), the MNTD50 (Vero) was 32 µg/mL and the Activity [6] was 47.37%. The MIC [1] was over 16 µg/mL, the MIC [2] was 0.25 µg/mL (≈ 0.588 µM) and the MIC (Mycobacterium marinum) was 16 µg/mL (≈ 37.6 µM). The Activity [7] was 98.74%, the Activity [8] was 84.21% and the MIC [3] was 0.25 µg/mL (≈ 0.588 µM). The Ratio [4] was 128.
Compound `CCc1ccc(-c2cc(CN3CCSCC3)c(C)n2-c2ccc(Cl)cc2)cc1` has an MIC (Mycobacterium avium) of 16 µg/mL (≈ 38.9 µM), an MNTD50 (Vero) of 16 µg/mL and an MIC [1] of 8 µg/mL (≈ 19.5 µM). It also gave an MIC [2] of 0.25 µg/mL (≈ 0.608 µM), an MIC (Mycobacterium marinum) of 8 µg/mL (≈ 19.5 µM) and an MIC [3] of 0.25 µg/mL (≈ 0.608 µM). For the same compound, the Ratio [4] was 64.
`NNC(=O)c1ccncc1` [ISONIAZID] showed an MIC (Mycobacterium avium) of 32 µg/mL (≈ 233 µM), an MIC [5] of 0.125 µg/mL (≈ 0.911 µM) and an MIC50 [5] of 0.125 µg/mL (≈ 0.911 µM). It also gave an MIC90 [5] of 0.25 µg/mL (≈ 1.82 µM), an MNTD50 (Vero) of 32 µg/mL and an MIC [1] of 64 µg/mL (≈ 467 µM). For the same compound, the MIC [2] was 0.25 µg/mL (≈ 1.82 µM), the MIC (Mycobacterium marinum) was 16 µg/mL (≈ 117 µM) and the MIC [3] was 0.125 µg/mL (≈ 0.911 µM). It also gave a Ratio [4] of 128.
In the case of `Cc1c(CN2CCSCC2)cc(-c2ccc(C(C)C)cc2)n1-c1ccc(Cl)cc1`, the MIC (Mycobacterium avium) is reported as 8 µg/mL (≈ 18.8 µM), the MNTD50 (Vero) is reported as 8 µg/mL and the MIC [1] is reported as 8 µg/mL (≈ 18.8 µM). The MIC [2] was 0.125 µg/mL (≈ 0.294 µM), the MIC (Mycobacterium marinum) was 4 µg/mL (≈ 9.41 µM) and the MIC [3] was 0.125 µg/mL (≈ 0.294 µM). For the same compound, the Ratio [4] was 64.
